Laboratory results as given in patent US20230329304A1, “METABOLIC THERAPY OF CANCER” (AMINOVITA S.L., priority 2020, published 2023).

Legend:
[1] = system: Renca cancer cells; assay: Survival of mice with renal cancer (Renca cells, intraperitoneal model); assay type: in vivo, male BALB/cAnNRJ mice
Excerpt: (§1) All mice were purchased from Janvier Labs® (France). Male BALB/cAnNRJ mice were used for the renal cancer model (Renca cells, intraperitoneal model). Female BALB/cAnNRJ mice were used for the colon cancer models (CT26WT cells, intraperitoneal and intravenous models), and for the triple negative breast cancer model (4T1 cells, intravenous model). Female C57BL/6J mice were used for the lung cancer model (LLc1 cells, intravenous model) and for the melanoma model (B16-F10 cells, intravenous model). All mice were 12 weeks or older at the beginning of the experiments. Treatments started 8 days after the injection of the cancer cells for the 4T1 breast cancer model and for the Renca renal cancer model (when the number of injected cells was 100.000). Treatments started 7 days after the injection for the Renca cancer model when the number of inoculated cells was 150.000, and for the LLc1 lung cancer model. Treatments started 4 days after the injection in the CT26WT colon cancer models (intraperitoneal and intravenous) and in the B16-F10 melanoma model.
(§2) Murine cells (5th-7th passage) were cultured in 75-cm2 flask. When the cells were approximately 60-70% confluent, medium was removed and cells were washed twice with sterile PBS. Then, cells were incubated with trypsin/EDTA solution for 2-3 min at 37° C. to allow cells to have a rounded shape but without detaching. Next, trypsin/EDTA solution was aspirated, cells were resuspended in 5 mL sterile PBS and the cell suspension was pipetted up and down to break up any cell aggregate before adding 10% FBS supplemented medium. Then, a working cell suspension (between 5×10^5-25×10^6 cells/mL depending on cancer model) was prepared. This suspension was centrifuged (5 min, 250 g) at room temperature. Medium was removed and cells were resuspended in warm 2.5% FBS supplemented medium. The working cell suspension was aliquoted into 2 mL tubes and they were kept at 37° C. in a humidified atmosphere containing 5% CO2 until use. Several minutes before the injection, tubes were centrifuged at 300 g 4° C. for 3 min, medium was removed and cells were resuspended in sterile PBS. Cells were counted again. Finally, a 1-mL syringe (insulin type with a 29-G×½″ needle) was filled with 0.2 mL of the working cell suspension, which was injected in the peritoneal cavity or in the tail vein of the mice. After inoculating the last mice, the cells in the last tube were placed in a flask and monitored during several weeks under the microscope to ensure that all mice were inoculated with viable cells.
(§3) One day before the start of the treatments, mice were housed in individual cages to avoid cannibalism. […] Animals were monitored daily and body weights were determined periodically (at least three times per week). […]

[2] = system: CT26.WT cancer cells; assay: Survival of mice with colon cancer (CT26.WT cells, intraperitoneal model); assay type: in vivo, female BALB/cAnNRJ mice
Excerpt: as §1
Murine cells (5th-7th passage) were cultured in 75-cm2 flask. When the cells were approximately 60-70% confluent, medium was removed and cells were washed twice with sterile PBS. Then, cells were incubated with trypsin/EDTA solution for 2-3 min at 37° C. to allow cells to have a rounded shape but without detaching. Next, trypsin/EDTA solution was aspirated, cells were resuspended in 5 mL sterile PBS and the cell suspension was pipetted up and down to break up any cell aggregate before adding 10% FBS supplemented medium. […] Cells were counted again. […] After inoculating the last mice, the cells in the last tube were placed in a flask and monitored during several weeks under the microscope to ensure that all mice were inoculated with viable cells.
as §3

[3] = system: CT26.WT cancer cells; assay: Survival of mice with colon cancer (CT26.WT cells, intravenous model); assay type: in vivo, female BALB/cAnNRJ mice
Excerpt: as §1, with “Treatments started 4 days after the injection in the CT26WT colon cancer models (intraperitoneal and intravenous) and in the B16-F10 melanoma model.” left out
(§4) Murine cells (5th-7th passage) were cultured in 75-cm2 flask. […] Cells were counted again. […] After inoculating the last mice, the cells in the last tube were placed in a flask and monitored during several weeks under the microscope to ensure that all mice were inoculated with viable cells.
as §3

[4] = system: 4T1 cancer cells; assay: Survival of mice with triple negative breast cancer (4T1 cells, intravenous model); assay type: in vivo; details: for mean survival (FIG. 4): 100,000 4T1 cells tail vein, treatment from day 8, diets 28 days, capecitabine 450 mg/kg/day oral cycles, cisplatin 5 mg/kg weekly x4 ip, control 26.1 days; for Survival improvement vs untreated mice (mean, days): Breast cancer, 4T1 cells, 100.000, tail vein injection (iv)
Excerpt: as §1, §2
One day before the start of the treatments, mice were housed in individual cages to avoid cannibalism. Treatments started four, seven or eight days (depending on the model) after injecting the cancer cells. Most treatments with the artificial diets lasted at least 4 weeks. Treatment with the artificial diets simply consisted of replacing their normal diet with an artificial diet in which the levels of specific AAs and lipids were manipulated. Sunitinib, and capecitabine were administered daily in the diet. Cisplatin and the anti-PD1 antibody were injected intraperitoneally. Animals were monitored daily and body weights were determined periodically (at least three times per week). […] Post-mortem examination was carried out to confirm the cause of death and to observe the extent of the disease. Autopsies confirmed the presence of tumors in all euthanized mice. […]

[5] = system: B16-F10 cells; assay: Survival of mice with melanoma (B16-F10 cells, intravenous model); assay type: in vivo, female C57BL/6J mice; details: B16-F10 cells, 500.000, tail vein injection (iv), C57BL/6J mice
Excerpt: as §1, with “Treatments started 4 days after the injection in the CT26WT colon cancer models (intraperitoneal and intravenous) and in the B16-F10 melanoma model.” left out
as §4, §3

| SMILES | mean survival (FIG. 1) ([1]; 100,000 Renca cells ip, treatment from day 8, P2 28 days, sunitinib 60 mg/kg/day 28 days oral, anti-PD1 250 μg ip x4, control 35.2 days) | Mean survival ([1]; 150,000 Renca cells ip, treatment from day 7, 28 days, 10 days normal diet, 21 more days, sunitinib 60 mg/kg/day oral, control 30.75) | Survival improvement vs. Control ([1]; 150,000 Renca cells ip, treatment from day 7, Table 4 experiment) | Survival improvement vs untreated mice (mean, days) ([1]; Renal cancer, renca cells, 100.000, intraperitoneal injection (ip)) | mean survival (FIG. 2) ([2]; 100,000 CT26.WT cells ip, treatment from day 4, P10 6 weeks, capecitabine 450 mg/kg/day oral cycles, control 24.6 days) | days lived more than untreated mice ([2]; 100,000 CT26.WT cells ip, treatment from day 4, diets 6 weeks, capecitabine 450 mg/kg/day, 7-day treatment+7-day rest, oral) | Survival improvement vs untreated mice (mean, days) ([2]; Colon cancer, CT26.WT cells, 10.000, intraperitoneal injection (ip)) | mean survival (FIG. 3) ([3]; 100,000 CT26.WT cells tail vein, treatment from day 4, P6 28 days, capecitabine 450 mg/kg/day oral cycles, control 33.3 days) | Survival improvement vs untreated mice (mean, days) ([3]; Colon cancer, CT26.WT cells, 10.000, tail vein injection (iv)) | premature deaths by drug toxicity ([4]; 4T1 iv model, capecitabine 450 mg/kg/day, 7-day treatment+7-day rest, oral, n=10) | mean survival (FIG. 4) [4] | Survival improvement vs untreated mice (mean, days) [4] | Survival improvement vs untreated mice (mean, days) [5] |
| --- | --- | --- | --- | --- | --- | --- | --- | --- | --- | --- | --- | --- | --- |
| CCN(CC)CCNC(=O)c1c(C)[nH]c(/C=C2\C(=O)Nc3ccc(F)cc32)c1C [Sunitinib, Sunitinib malate] | 62.2 days | 48 days | 17.25 days | +20.4 days |  |  |  |  |  |  |  |  |  |
| CCCCCOC(=O)Nc1nc(=O)n([C@@H]2O[C@H](C)[C@@H](O)[C@H]2O)cc1F [Capecitabine] |  |  |  |  | 27.7 days | 4.5 days | +7.6 days | 36.7 days | 0.0 days | two mice died prematurely by excessive drug toxicity | 24.2 days | +3.7 days |  |
| N.N.[Cl][Pt][Cl] [Cisplatin] |  |  |  |  |  |  |  |  |  |  | 33.6 days | +4.7 days | +3.5 days |
